Results on 30 compounds are retold here after patent publication US9278981B2, “Compounds and compositions for inhibiting the activity of ABL1, ABL2 and BCR-ABL1” (Novartis AG, priority 2012, dated 2016).

Broadly, the IC50 is the concentration that inhibits the measured activity by half. Low values mean greater potency in that assay, high ones weaker potency in that assay.

ABL1 (64-515), sequence (P00519 64-515): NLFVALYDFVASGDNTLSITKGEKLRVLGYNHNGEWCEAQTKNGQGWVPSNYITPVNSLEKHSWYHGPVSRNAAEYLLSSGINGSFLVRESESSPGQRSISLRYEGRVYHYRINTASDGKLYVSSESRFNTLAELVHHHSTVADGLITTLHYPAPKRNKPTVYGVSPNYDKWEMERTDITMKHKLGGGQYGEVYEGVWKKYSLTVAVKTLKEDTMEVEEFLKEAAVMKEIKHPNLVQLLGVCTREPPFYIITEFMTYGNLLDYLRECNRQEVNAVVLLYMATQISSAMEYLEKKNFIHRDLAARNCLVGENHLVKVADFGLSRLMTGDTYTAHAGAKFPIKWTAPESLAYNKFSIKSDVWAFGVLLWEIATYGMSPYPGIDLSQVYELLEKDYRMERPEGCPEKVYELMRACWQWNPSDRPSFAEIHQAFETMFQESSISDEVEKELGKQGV

The experiment addresses ABL1 (64-515) (Homo sapiens (Human), UniProt P00519). Description: Radio ABL1 (64-515) assay (radiometric filter-binding). In kind it is biochemical.
`Cc1ncc(-c2cc(C(=O)Nc3ccc(OC(F)(F)F)cc3)ccc2N2CC[C@@H](O)C2)cn1` [Example 3, (R)-4-(3-Hydroxypyrrolidin-1-yl)-3-(2-methylpyrimidin-5-yl)-N-(4-(trifluoromethoxy)phenyl)benzamide] gave a half-maximal inhibitory concentration (IC50) of under 3 nM.

On to `Cc1ccc(-c2cc(C(=O)Nc3ccc(OC(F)(F)F)cc3)ccc2N2CC[C@@H](O)C2)cn1` [Example 6, (R)-4-(3-Hydroxypyrrolidin-1-yl)-3-(6-methylpyridin-3-yl)-N-(4-(trifluoromethoxy)phenyl)benzamide], for which the half-maximal inhibitory concentration (IC50) was under 3 nM.

The compound `CC1(O)CCN(c2ccc(C(=O)Nc3ccc(OC(F)(F)F)cc3)cc2-c2cncnc2)C1` (stereo not drawn) [Example 11, 4-(3-Hydroxy-3-methylpyrrolidin-1-yl)-3-(pyrimidin-5-yl)-N-(4-(trifluoromethoxy)phenyl)benzamide] showed an IC50 of under 3 nM.

Compound `CC(=O)NC1CCN(c2ncc(C(=O)Nc3ccc(OC(F)(F)F)cc3)cc2-c2cncnc2)C1` (stereo not drawn) [Example 15] registered an IC50 of under 3 nM.

Consider `CN1CC2CN(c3ncc(C(=O)Nc4ccc(OC(F)(F)F)cc4)cc3-c3cncnc3)CC2C1` (stereo not drawn) [Example 16], for which the IC50 is under 3 nM.

`O=C(Nc1ccc(OC(F)(F)F)cc1)c1cnc(N2CCC3(CCNC3=O)C2)c(-c2cncnc2)c1` (stereo not drawn) [Example 17] returned an IC50 of under 3 nM.

For the compound `O=C(Nc1ccc(OC(F)(F)F)cc1)c1cnc(N2Cc3ccncc3C2)c(-c2cncnc2)c1` [Example 18], the IC50 is under 3 nM.

`O=C(Nc1ccc(OC(F)(F)F)cc1)c1cnc(N2CCCC(CO)C2)c(-c2cncnc2)c1` (stereo not drawn) [Example 19] yielded an IC50 of under 3 nM.

Consider `CC(=O)NC1CCCN(c2ncc(C(=O)Nc3ccc(OC(F)(F)F)cc3)cc2-c2cncnc2)C1` (stereo not drawn) [Example 20], for which the IC50 was under 3 nM.

On to `NC(=O)C1CCN(c2ncc(C(=O)Nc3ccc(OC(F)(F)F)cc3)cc2-c2cncnc2)CC1` [Example 21], for which the IC50 was found to be 13 nM.

`O=C(Nc1ccc(OC(F)(F)F)cc1)c1cnc(N2CCC(O)CC2)c(-c2cncnc2)c1` [Example 22] showed an IC50 of under 3 nM.

The compound `N#C[C@@H]1CCCN(c2ncc(C(=O)Nc3ccc(OC(F)(F)F)cc3)cc2-c2cncnc2)C1` [Example 23] had an IC50 of under 3 nM.

On to `N#C[C@H]1CCCN(c2ncc(C(=O)Nc3ccc(OC(F)(F)F)cc3)cc2-c2cncnc2)C1` [Example 24], for which the IC50 was under 3 nM.

Take `CN(c1ncc(C(=O)Nc2ccc(OC(F)(F)F)cc2)cc1-c1cncnc1)C1CCOCC1` [Example 27]: the IC50 is under 3 nM.

For the compound `COc1ncc(-c2cc(C(=O)Nc3ccc(OC(F)(F)F)cc3)cnc2N2CCC(O)C2)cn1` (stereo not drawn) [Example 28, 6-(3-Hydroxypyrrolidin-1-yl)-5-(2-methoxypyrimidin-5-yl)-N-(4-(trifluoromethoxy)phenyl)nicotinamide], the IC50 is under 3 nM.

On to `O=C(Nc1ccc(OC(F)(F)F)cc1)c1cnc(N2CCC(O)C2)c(-c2cccnc2)c1` (stereo not drawn) [Example 29, 2-(3-Hydroxypyrrolidin-1-yl)-N-(4-(trifluoromethoxy)phenyl)-[3,3′-bipyridine]-5-carboxamide], for which the IC50 was under 3 nM.

The compound `Cc1ccc(-c2cc(C(=O)Nc3ccc(OC(F)(F)F)cc3)cnc2N2CCC(O)C2)cn1` (stereo not drawn) [Example 30, 2-(3-Hydroxypyrrolidin-1-yl)-6′-methyl-N-(4-(trifluoromethoxy)phenyl)-[3,3′-bipyridine]-5-carboxamide] gave an IC50 of under 3 nM.

Turning to `O=C(Nc1ccc(OC(F)(F)F)cc1)c1cnc(N2CCC(O)C2)c(-c2ccncc2)c1` (stereo not drawn) [Example 31, 2-(3-Hydroxypyrrolidin-1-yl)-N-(4-(trifluoromethoxy)phenyl)-[3,4′-bipyridine]-5-carboxamide], the IC50 was found to be 7 nM.

With `O=C(Nc1ccc(OC(F)(F)F)cc1)c1cnc(N2CCC(O)C2)c(-c2ccc(C(F)(F)F)nc2)c1` (stereo not drawn) [Example 32, 2-(3-Hydroxypyrrolidin-1-yl)-N-(4-(trifluoromethoxy)phenyl)-6′-(trifluoromethyl)-[3,3′-bipyridine]-5-carboxamide], the IC50 was under 3 nM.

`Cc1ncc(-c2cc(C(=O)Nc3ccc(OC(F)(F)F)cc3)cnc2N2CC[C@@H](O)C2)cn1` [Example 36, (R)-6-(3-Hydroxypyrrolidin-1-yl)-5-(2-methylpyrimidin-5-yl)-N-(4-(trifluoromethoxy)phenyl)nicotinamide] came in with an IC50 of under 3 nM.

Compound `COc1ncc(-c2cc(C(=O)Nc3ccc(OC(F)(F)F)cc3)cnc2N2CC[C@@H](O)C2)cn1` [Example 37, (R)-6-(3-Hydroxypyrrolidin-1-yl)-5-(2-methoxypyrimidin-5-yl)-N-(4-(trifluoromethoxy)phenyl)nicotinamide] returned an IC50 of 3 nM.

On to `Cc1cncc(-c2cc(C(=O)Nc3ccc(OC(F)(F)F)cc3)cnc2N2CC[C@@H](O)C2)c1` [Example 44, (R)-2-(3-Hydroxypyrrolidin-1-yl)-5′-methyl-N-(4-(trifluoromethoxy)phenyl)-[3,3′-bipyridine]-5-carboxamide], for which the IC50 was under 3 nM.

`COc1cncc(-c2cc(C(=O)Nc3ccc(OC(F)(F)F)cc3)cnc2N2CC[C@@H](O)C2)c1` [Example 55, (R)-2-(3-hydroxypyrrolidin-1-yl)-5′-methoxy-N-(4-(trifluoromethoxy)phenyl)-[3,3′-bipyridine]-5-carboxamide] registered an IC50 of 3 nM.

`COc1ccc(-c2cc(C(=O)Nc3ccc(OC(F)(F)F)cc3)cnc2N2CC[C@@H](O)C2)cn1` [Example 56, (R)-2-(3-hydroxypyrrolidin-1-yl)-6′-methoxy-N-(4-(trifluoromethoxy)phenyl)-[3,3′-bipyridine]-5-carboxamide] had an IC50 of 4 nM.

`O=C(Nc1ccc(OC(F)(F)F)cc1)c1cnc(N2CC[C@@H](O)C2)c(-c2cccc(CO)c2)c1` [Example 59, (R)-5-(3-(Hydroxymethyl)phenyl)-6-(3-hydroxypyrrolidin-1-yl)-N-(4-(trifluoromethoxy)phenyl)nicotinamide] came in with an IC50 of 6 nM.

Take `O=C(Nc1ccc(OC(F)(F)F)cc1)c1cnc(N2CC[C@@H](O)C2)c(-c2ccc3ccncc3c2)c1` [Example 63, (R)-6-(3-Hydroxypyrrolidin-1-yl)-5-(isoquinolin-7-yl)-N-(4-(trifluoromethoxy)phenyl)nicotinamide]: the IC50 was 4 nM.

The compound `O=C(Nc1ccc(OC(F)(F)F)cc1)c1cnc(N2CC[C@@H](O)C2)c(-c2ccc3nccnc3c2)c1` [Example 64, (R)-6-(3-Hydroxypyrrolidin-1-yl)-5-(quinoxalin-6-yl)-N-(4-(trifluoromethoxy)phenyl)nicotinamide] had an IC50 of under 3 nM.

For `O=C(Nc1ccc(OC(F)(F)F)cc1)c1cnc(N2CCCC2)c(-c2cncnc2)c1` [Example 67, 5-(Pyrimidin-5-yl)-6-(pyrrolidin-1-yl)-N-(4-(trifluoromethoxy)phenyl)nicotinamide], the IC50 was under 3 nM.

Compound `O=C(Nc1ccc(OC(F)(F)F)cc1)c1cnc(N2CC[C@@H](CO)C2)c(-c2cccnc2)c1` [Example 76, (R)-2-(3-(Hydroxymethyl)pyrrolidin-1-yl)-N-(4-(trifluoromethoxy)phenyl)-[3,3′-bipyridine]-5-carboxamide] yielded an IC50 of under 3 nM.

The compound `N#Cc1ncc(-c2cc(C(=O)Nc3ccc(OC(F)(F)F)cc3)cnc2N2CC[C@H](CO)C2)cn1` [Example 80, (S)-5-(2-Cyanopyrimidin-5-yl)-6-(3-(hydroxymethyl)pyrrolidin-1-yl)-N-(4-(trifluoromethoxy)phenyl)nicotinamide] had an IC50 of 5 nM.
